These molecules were tested on fungi (assay: Observed contribution of nutrients to antifungal activity). Conditions: nutrient of the antimicrobial mixture.
Assay type: cell-based
For `O=C1O[C@H]([C@@H](O)CO)C(O)=C1O` [ascorbic acid], the “contribution to the antifungal activity of the antimicrobial mixture” value (“contribution to the antifungal activity” for short) was “contribute minimally”. With `O=C(O)CC(O)(CC(=O)O)C(=O)O` [citrate] the “contribution to the antifungal activity” value was “contribute minimally”. With `NCC(=O)O` [glycine] the “contribution to the antifungal activity” value was “contribute minimally”. For `CC(O)C(=O)O` (stereo not shown) [lactate], the “contribution to the antifungal activity” value was “follows the glucose with regard to the significance of its contribution”.

Source: patent US10632202B2, “Preservative containing compositions” (JOHNSON & JOHNSON CONSUMER INC., priority 2016, dated 2020)
